From patent US20070265164A1, “Active Substances for Increasing Pathogenic Defense in Plants and Methods for the Detection Thereof” (Bayer Cropscience GmbH, priority 2004, published 2007)

Experiments:
Type in all cases: in vivo
Parameters in all cases: fold induction: dose or concentration left out as unconfirmed
[1] = system: Contig 4986_at, Allene oxide cyclase; assay: GEP, barley DNA chip, probe set 1.5; conditions: for fold induction / fold induction at 150 g/ha: Hordeum vulgare, topical, read-out: Expression value, 1.5 Contig 4986_at; for fold induction: rates of Table 1 (S7 500); for fold induction at 150 g/ha: 6 h
Experimental: (§1) Barley plants (cv. Baronesse) were grown in compost-filled pots (diameter: 10 cm) for 10 days in a controlled-environment cabinet under defined light, humidity and temperature conditions (white light, 70% atmospheric humidity, 24° C.). At the time of spray application, the seedlings were approximately 15 cm in size. The test substances selected in this example were molecules which differ markedly in their structure and which have a well documented pronounced safener effect, and other molecules which are known from the literature to have an effect on plant stress and pathogen tolerance (Table 1). The substances were prepared as stock solutions in DMSO (dimethyl sulfoxide) at c=10 mg/ml). This was used for preparing dilutions in water supplemented with 0.2% Agrotin (comprises polyvinyl alcohol, silicones, polysaccharides and pH regulators, manufacturer: Bayer CropScience AG, Monheim, Germany), as wetter, to give the application rates shown in the table. The amount of liquid for the spray application was 800 μl per pot, corresponding to 800 l/ha. For each 800 μl of spray mixture, 16 μl of EC premix: diacetone alcohol=1:6 were additionally added as formulation auxiliaries. The substances listed in Table 1 were applied to the leaves by means of a pneumatic spray pistol. Each substance was sprayed as 2 dosages, and all experiments were carried out as replicates (2 pots per substance). Sprayings with blank formulation without active ingredient were carried out as controls. After 6 hours, the leaves were harvested, frozen in liquid nitrogen and stored at −80° C. until further use. The labeled RNA probes for the DNA chip hybridization were prepared as described in the protocols (Expression Analysis, Technical Manual) from Affymetrix (Affymetrix Inc., 3380 Central Expressway, Santa Clara, Calif., USA). First, total RNA was isolated from in each case 500 mg of the harvested leaves. In each case 10 μg of total RNA was used for the first-strand and second-strand cDNA synthesis. The cDNA was amplified with T7 polymerase and simultaneously labeled with biotin-UTP. In each case, 20 μg of this biotinylated cDNA was employed for the hybridization of the barley genome array (Gene Chip Barleyl, order No.: 511012) from Affymetrix. This DNA microarray comprises DNA sequences of 22 840 genes which are composed of a total of 400 000 EST sequences. Thereafter, the DNA microarrays were washed in the Affymetrix Fluidics Station, stained with streptavidin/phycoerythrin (Molecular Probes, P/N S-866) and scanned with the matching Agilent Laser Scanner (Agilent Gene Array Scanner). The fluorescent data obtained were analyzed with the software Microarray Suite 5 from Affymetrix. After the quality had been checked, all DNA chip analyses were stored in a database. To determine the relative expression values for genes (induction factors, repression factors), test and control chips were compared with each other, and the scoring function set by the Affymetrix software was used as the basis. The 2 biological replications of one experiment were compared in each case with 2 control chips (blank formulation), and the 4 expression values obtained for each gene were used for calculating the median. These medians are shown in the results tables as induction factors. Similarity comparisons of expression profiles from different experiments and cluster analyses were carried out using the software GeneMaths 1.5 from Applied Maths (Applied Maths, Keistraat 120, 9830 Sint-Martens-Latem, Belgium).
(§2) Gene groups from specific metabolic pathways and signal transduction chains were put together by key word search in the annotations, of the genes, which were also provided by Affymetrix, and by Blast analyses (homology comparisons) of the DNA target sequences, i.e. of the positive sequence (identified on the basis of a modified expression profile) identified on the DNA chip, using gene sequences from other organisms, preferably plant organisms, with characterized functions. […]

[2] = system: Contig6611_at, Similar to lipases; assay: GEP, barley DNA chip, probe set 1.12; conditions: for fold induction / fold induction at 150 g/ha: Hordeum vulgare, topical, read-out: Expression value, 1.12 Contig6611_at; for fold induction: rates of Table 1 (S7 500); for fold induction at 150 g/ha: 6 h
Experimental: as §1, §2

[3] = system: Contig15_a_at, GDSL-motif lipase/hydrolase-like protein; assay: GEP, barley DNA chip, probe set 1.9; conditions: for fold induction / fold induction at 150 g/ha: Hordeum vulgare, topical, read-out: Expression value, 1.9 Contig15_a_at; for fold induction: rates of Table 1 (S7 500); for fold induction at 150 g/ha: 6 h
Experimental: as §1, §2

[4] = system: HV_Ceb0020D05r2_s_at, Allene oxide cyclase; assay: GEP, barley DNA chip, probe set 1.6; conditions: Hordeum vulgare, topical, read-out: Expression value, 1.6 HV_Ceb0020 D05r2_s_at; for fold induction: barley leaves 6 h after spray application, rates of Table 1 (S7 500), median induction factor vs control; for fold induction at 150 g/ha: 6 h
Experimental: as §1, §2

[5] = system: Contig3096_s_at, Allene oxide synthase; assay: GEP, barley DNA chip, probe set 1.16; conditions: for fold induction / fold induction at 150 g/ha: Hordeum vulgare, topical, read-out: Expression value, 1.16 Contig3096_s_at; for fold induction: rates of Table 1 (S7 500); for fold induction at 150 g/ha: 6 h
Experimental: as §1, §2

[6] = system: HD07M22r_s_at, Proteinase-Inhibitor (pir S71555, barley); assay: GEP, barley DNA chip, probe set 2.4; conditions: for fold induction / fold induction at 150 g/ha: Hordeum vulgare, topical, read-out: Expression value, 2.4 HD07M22r_s_at; for fold induction: rates of Table 1 (S7 500); for fold induction at 150 g/ha: 6 h
Experimental: as §1, §2

[7] = system: Contig2326_s_at, 12-oxophytodienoic acid reductase; assay: GEP, barley DNA chip, probe set 1.18; conditions: for fold induction / fold induction at 150 g/ha: Hordeum vulgare, topical, read-out: Expression value, 1.18 Contig2326_s_at; for fold induction: rates of Table 1 (S7 500); for fold induction at 150 g/ha: 6 h
Experimental: as §1, §2

[8] = system: Contig2990_at, Chitinase (EC 3.2.1.14); assay: GEP, barley DNA chip, probe set 5.1; conditions: for fold induction / fold induction at 150 g/ha: Hordeum vulgare, topical, read-out: Expression value, 5.1 Contig2990_at; for fold induction: rates of Table 1 (S7 500); for fold induction at 150 g/ha: 6 h
Experimental: as §1, §2

[9] = system: Contig2118_at, Peroxidase (EC 1.11.1.7), pathogen-induced; assay: GEP, barley DNA chip, probe set 4.1; conditions: for fold induction / fold induction at 150 g/ha: Hordeum vulgare, topical, read-out: Expression value, 4.1 Contig2118_at; for fold induction: rates of Table 1 (S7 500); for fold induction at 150 g/ha: 6 h
Experimental: as §1, §2

[10] = system: Contig2631_at, Lipase-like Protein (jasmonic acid biosynthesis gene); assay: Gene expression profiling (GEP), barley DNA chip, probe set 1.1; conditions: for fold induction / fold induction at 150 g/ha: Hordeum vulgare; for fold induction: rates of Table 1 (S7 500); for fold induction at 150 g/ha: 6 h, read-out: Expression value, 1.1 Contig2631_at
Experimental: as §1, §2

[11] = system: Contig8905_at, Xytanase inhibitor protein; assay: GEP, barley DNA chip, probe set 3.1; conditions: for fold induction / fold induction at 150 g/ha: Hordeum vulgare, topical, read-out: Expression value, 3.1 Contig8905_at; for fold induction: rates of Table 1 (S7 500); for fold induction at 150 g/ha: 6 h
Experimental: as §1, §2

[12] = system: Contig10030_at, Putative lipase homolog; assay: GEP, barley DNA chip, probe set 1.13; conditions: for fold induction / fold induction at 150 g/ha: Hordeum vulgare, topical, read-out: Expression value, 1.13 Contig10030_at; for fold induction: rates of Table 1 (S7 500); for fold induction at 150 g/ha: 6 h
Experimental: as §1, §2

[13] = barley leaves 6 h after spray application, median induction factor vs control
[14] = barley leaves 6 h after spray application, rates of Table 1 (150 g a.i./ha, S7 500), median induction factor vs control

SMILES | fold induction [1, 13] | fold induction [2, 13] | fold induction [3, 13] | fold induction [4] | fold induction [5, 13] | fold induction [6, 13] | fold induction [7, 13] | fold induction [8, 13] | fold induction [9, 13] | fold induction [10, 13] | fold induction [11, 13] | fold induction [12, 13] | also measured
COC(=O)C1=NN(c2ccc(Cl)cc2Cl)C(C)(C(=O)OC)C1 (centres unmarked) [S1, Mefenpyr-dimethyl] | 1 | 1 | 0.35 | 1 | 1 | 6.32 | 2.31 | 4.17 | 8.69 | 1 | 3.1 | 1 | 
O=C(O)C1=NN(c2ccc(Cl)cc2Cl)C(c2ccc(F)cc2)C1 (centres unmarked) [S2] | 1 | 1 | 1 | 1 | 1 | 1 | 1 | 1 | 1 | 1 | 2.53 | 1 | 
CCOC(=O)C1=NOC(c2ccccc2)(c2ccccc2)C1 [S3, Isoxadifen-ethyl] |  |  |  |  |  |  |  |  |  |  |  |  | fold induction at 150 g/ha [1]: 3.76; fold induction at 150 g/ha [2]: 2.41; fold induction at 150 g/ha [3]: 2.97; fold induction at 150 g/ha [4]: 3.68; fold induction at 150 g/ha [5]: 1; fold induction at 150 g/ha [6]: 2.71; fold induction at 150 g/ha [7]: 1; fold induction at 150 g/ha [8]: 2.77; fold induction at 150 g/ha [9]: 4.86; fold induction at 150 g/ha [10]: 97.7; fold induction at 150 g/ha [11]: 2.99; fold induction at 150 g/ha [12]: 2.25
CCCCCC(C)OC(=O)COc1ccc(Cl)c2cccnc12 (centres unmarked) [S4, Cloquintocet-mexyl] | 1 | 1 | 1 | 1 | 1 | 1 | 2.45 | 1 | 1 | 1 | 2.73 | 1 | 
CCOC(=O)C(Oc1ccc(Cl)c2cccnc12)C(=O)OCC [S5] | 1 | 1 | 0.46 | 1 | 1 | 7.84 | 1 | 1 | 2.33 | 1 | 3.01 | 1 | 
NC(=O)c1ccc(C(F)(F)F)nc1O [S6] | 1 | 1 | 1 | 1 | 1 | 5.1 | 1 | 1 | 2.2 | 1 | 2.45 | 1 | 
O=C(NO)c1ccccc1O [S7, Salicyl hydroxamate] |  |  |  |  |  |  |  |  |  |  |  |  | Expression value, 1.5 Contig 4986_at [1, 14]: 1.00 x times; Expression value, 1.12 Contig6611_at [2, 14]: 2.31 x times; Expression value, 1.9 Contig15_a_at [3, 14]: 1.00 x times; Expression value, 1.16 Contig3096_s_at [5, 14]: 2.06 x times; Expression value, 2.4 HD07M22r_s_at [6, 14]: 1.00 x times; Expression value, 1.18 Contig2326_s_at [7, 14]: 1.00 x times; Expression value, 5.1 Contig2990_at [8, 14]: 1.00 x times; Expression value, 4.1 Contig2118_at [9, 14]: 1.00 x times; Expression value, 1.1 Contig2631_at [10, 14]: 1.00 x times; Expression value, 3.1 Contig8905_at [11, 14]: 1.00 x times; Expression value, 1.13 Contig10030_at [12, 14]: 1.00 x times
CSC(=O)c1cccc2nnsc12 [S8, Acibenzolar-S-methyl] | 1 | 3.61 | 1 | 1 | 2.68 | 1 | 1 | 1 | 1 | 1 | 1 | 1 | 
O=C(O)c1cc(Cl)nc(Cl)c1 [S9] |  |  |  |  |  |  |  |  |  |  |  |  | fold induction at 150 g/ha [1]: 1; fold induction at 150 g/ha [2]: 2; fold induction at 150 g/ha [3]: 1; fold induction at 150 g/ha [4]: 1; fold induction at 150 g/ha [5]: 1; fold induction at 150 g/ha [6]: 1; fold induction at 150 g/ha [7]: 1; fold induction at 150 g/ha [8]: 2.39; fold induction at 150 g/ha [9]: 1; fold induction at 150 g/ha [10]: 1; fold induction at 150 g/ha [11]: 2.53; fold induction at 150 g/ha [12]: 1
